# From US10597375B2, “Halogen-substituted heterocyclic compound” (UBE INDUSTRIES, LTD., priority 2012, dated 2020)
# Columns and labels:
# [1] = target: T1, human LPA1 receptor (Homo sapiens, UniProt Q92633); assay: Binding test of GTPγS to LPA1 receptor; format: biochemical; conditions: membrane fraction of RH 7777 cells expressed with human LPA1 receptor; LPA 100 nM; read-out: IC50: concentration of the test compound which inhibits the binding of LPA1 receptor and [35S]GTPγS by 50%
# T1 construct: purchased ChanTest A324; host or cells: RH 7777 cells (recombinant expression; membrane fraction)
# T1 sequence (Q92633 whole entry): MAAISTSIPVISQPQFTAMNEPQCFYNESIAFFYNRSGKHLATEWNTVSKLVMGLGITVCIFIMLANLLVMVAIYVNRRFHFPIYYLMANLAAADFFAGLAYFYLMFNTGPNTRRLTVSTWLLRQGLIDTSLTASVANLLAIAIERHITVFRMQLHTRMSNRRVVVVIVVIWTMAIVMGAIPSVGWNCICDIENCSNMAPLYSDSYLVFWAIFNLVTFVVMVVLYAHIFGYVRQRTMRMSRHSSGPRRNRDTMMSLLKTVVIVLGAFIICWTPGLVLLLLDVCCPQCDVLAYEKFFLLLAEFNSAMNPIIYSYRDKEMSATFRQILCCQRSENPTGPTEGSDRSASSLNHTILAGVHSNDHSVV
# Method: Binding test of GTPγS to LPA1 receptor
# 5 μg of the membrane fraction of RH 7777 cells expressed with human LPA1 receptor (A324, ChanTest) was suspended in a reaction buffer (20 mM HEPES, 100 mM NaCl, 10 mM MgCl2, 10 μM GDP, 5 μg saponin, 0.2% BSA, 0.1 nM [^35S]GTPγS (NEG030X, Perkin Elmer), pH 7.4), and the test compound dissolved in DMSO in various concentrations was added. After preincubation at 30° C. for 15 minutes, LPA (L7260, Sigma, the final concentration of 100 nM) was added, and the suspension was incubated at 30° C. for 30 minutes. The membrane fraction was collected onto a glass fiber filter (GF/B, Whatman) by using a cell harvester (M30, Brandel), and washed with a 10 mM phosphate buffer (pH 7.4). The radioactivity of the membrane fraction was measured using a liquid scintillation analyzer (2900TR, Packard) and the concentration of the test compound which inhibits the binding of LPA1 receptor and [^35S]GTPγS by 50%, (1050) was determined by non-linear regression analysis using EXSAS (version 7.6.0, Arm Systex).
# [2] = system: A2058 human melanoma cells; assay: Cell migration test (LPA-induced, Chemo-Tx); format: cell-based; conditions: LPA 100 nM, 3 hours, read-out: IC50: concentration of the test compound which inhibits the cell migration activity of LPA by 50%
# Method: The cell migration test was carried out using Chemo-Tx (registered trademark) (116-8, Neuro Probe). A2058 human melanoma cells (obtained from European Collection of Cell Culture) were cultured in a serum-free EMEM medium for 24 hours, and then re-suspended in a 0.1% BSA-containing DMEM medium to obtain a cell suspension. The test compound dissolved in DMSO in various concentration was each added to the cell suspension, and the suspension was cultured at 37° C. for 15 minutes (the final DMSO concentration of 0.5%). LPA dissolved in a 0.1% BSA-containing DMEM medium (the final concentration of 100 nM) was added to Chemo-Tx 96 well plate, and a Chemo-Tx filter which had been coated with 0.001% Fibronectin on the both surfaces was put on the plate. The suspension of cultured cells (25,000 cells) was added onto the upper surface of the filter and further cultured at 37° C. for 3 hours, and the cells on the upper surface of the filter were removed. After the filter was removed and dried, the cells which had migrated to the lower surface of the filter were stained using Diff-Quik stain (16920, Sysmex). The absorbance of the filter (570 nm) was measured and the concentration of the test compound which inhibits the cell migration activity of LPA by 50%, (1050) was determined by non-linear regression analysis using EXSAS (version 7.6.0, Arm Systex).
# [3] = system: LPA-induced histamine release; assay: LPA-induced histamine release test in mouse; format: in vivo; conditions: male CD1 mice; oral dose of 10 mg/kg; LPA 300 μg/mouse via tail vein 4 hours after administration; blood 2 minutes after LPA; read-out: efficacy rate (rate of individuals which showed the inhibition rate of 80% or more of plasma histamine)
# Method: LPA-Induced Histamine Release Test in Mouse
# LPA-induced histamine release test in mouse was carried out according to a method by Swaney et al. (The Journal of Pharmacology and Experimental Therapeutics, 336 (2011), pages 693-700). The test compound was suspended in 0.5% methylcellulose solution (133-14255, Wako), and orally administered to male CD1 mice (body weight: 30 to 40 g, supplied by Charles River Laboratories Japan) at a dose of 10 mL/kg. 4 hours after administration, LPA (857130P, Avanti) dissolved in a 0.1% BSA-containing PBS was administered via the tail vein (300 μg/mouse). Immediately, the mouse was anesthetized with isoflurane, and blood was collected via a vein 2 minutes after the administration of LPA. The blood was put into a test tube containing EDTA, and centrifuged at 4° C., 2,000×g, for 10 minutes to obtain the plasma.
# The histamine concentration in the plasma was measured by EIA kit (62HTMPEB, Cisbio Bioassays).
SMILES,IC50 [1],IC50 [2],responders at 10 mg/kg [3]
"CC(OC(=O)Nc1cc(Br)sc1-c1ccc(-c2ccc(C3(C(=O)O)CC3)cc2)cc1)c1ccccc1Cl (racemic) [I-11, (RS)-1-{4′-[5-Bromo-3-({[1-(2-chlorophenyl)ethoxy]carbonyl}amino)thiophen-2-yl]-[1,1′-biphenyl]-4-yl}cyclopropanecarboxylic acid]",≤ 200 nM,–,–
"C[C@@H](OC(=O)Nc1cc(Cl)sc1-c1ccc(-c2ccc(C3(C(=O)O)CC3)cc2)cc1)c1ccc(F)cc1F [I-64, (R)-1-{4′-[5-Chloro-3-({[1-(2,4-difluorophenyl)ethoxy]carbonyl}amino)thiophen-2-yl]-[1,1′-biphenyl]-4-yl}cyclopropanecarboxylic acid]",–,≤ 200 nM,≥ 50%
"CC(OC(=O)Nc1cc(Cl)sc1-c1ccc(-c2ccc(C3(C(=O)O)CC3)cc2)cc1)c1ccccc1Cl (racemic) [I-51, (RS)-1-{4′-[5-Chloro-3-({[1-(2-chlorophenyl)ethoxy]carbonyl}amino)thiophen-2-yl]-[1,1′-biphenyl]-4-yl}cyclopropanecarboxylic acid]",≤ 200 nM,≤ 200 nM,–
"COc1cc(-c2sc(F)cc2NC(=O)OC(C)c2ccsc2)ccc1-c1ccc(C2(C(=O)O)CC2)cc1 (racemic) [I-811, (RS)-1-{4′-[5-Fluoro-3-({[1-(thiophen-3-yl)ethoxy]carbonyl}amino)thiophen-2-yl]-2′-methoxy-[1,1′-biphenyl]-4-yl}cyclopropanecarboxylic acid]",–,≤ 200 nM,≥ 50%
"COc1cc(-c2sc(F)cc2NC(=O)O[C@H](C)c2cc(F)ccc2F)ccc1-c1ccc(C2(C(=O)O)CC2)cc1 [I-458, (R)-1-{4′-[3-({[1-(2,5-Difluorophenyl)ethoxy]carbonyl}amino)-5-fluorothiophen-2-yl]-2′-methoxy-[1,1′-biphenyl]-4-yl}cyclopropanecarboxylic acid]",–,≤ 200 nM,≥ 50%
"C[C@@H](OC(=O)Nc1cc(F)sc1-c1ccc(-c2ccc(C3(C(=O)O)CC3)cc2)cc1)c1ccsc1 [I-640, (R)-1-{4′-[5-Fluoro-3-({[1-(thiophen-3-yl)ethoxy]carbonyl}amino)thiophen-2-yl]-[1,1′-biphenyl]-4-yl}cyclopropanecarboxylic acid]",–,≤ 200 nM,≥ 50%
"COc1cc(-c2sc(Cl)cc2NC(=O)O[C@H](C)c2ccc(F)cc2)ccc1-c1ccc(C2(C(=O)O)CC2)cc1 [I-362, (R)-1-{4′-[5-Chloro-3-({[1-(4-fluorophenyl)ethoxy]carbonyl}amino)thiophen-2-yl]-2′-methoxy-[1,1′-biphenyl]-4-yl}cyclopropanecarboxylic acid]",–,≤ 200 nM,≥ 50%
"COc1cc(-c2sc(Cl)cc2NC(=O)O[C@H](C)c2ccccc2)ccc1-c1ccc(C2(C(=O)O)CC2)cc1 [I-350, (R)-1-[4′-(5-Chloro-3-{[(1-phenylethoxy)carbonyl]amino}thiophen-2-yl)-2′-methoxy-[1,1′-biphenyl]-4-yl]cyclopropanecarboxylic acid]",–,≤ 200 nM,≥ 50%
"COc1cc(-c2sc(Cl)cc2NC(=O)O[C@H](C)c2cc(F)ccc2F)ccc1-c1ccc(C2(C(=O)O)CC2)cc1 [I-388, (R)-1-{4′-[5-Chloro-3-({[1-(2,5-difluorophenyl)ethoxy]carbonyl}amino)thiophen-2-yl]-2′-methoxy-[1,1′-biphenyl]-4-yl}cyclopropanecarboxylic acid]",–,≤ 200 nM,≥ 50%
"COc1cc(-c2sc(F)cc2NC(=O)O[C@H](C)c2ccccc2C)ccc1-c1ccc(C2(C(=O)O)CC2)cc1 [I-450, (R)-1-{4′-[5-Fluoro-3-({[1-(o-tolyl)ethoxy]carbonyl}amino)thiophen-2-yl]-2′-methoxy-[1,1′-biphenyl]-4-yl}cyclopropanecarboxylic acid]",–,≤ 200 nM,≥ 50%
"C[C@@H](OC(=O)Nc1cc(F)sc1-c1ccc(-c2ccc(C3(C(=O)O)CC3)cc2)cc1)c1ccc(F)cc1F [I-140, (R)-1-{4′-[3-({[1-(2,4-Difluorophenyl)ethoxy]carbonyl}amino)-5-fluorothiophen-2-yl]-[1,1′-biphenyl]-4-yl}cyclopropanecarboxylic acid]",≤ 200 nM,≤ 200 nM,–
"C[C@@H](OC(=O)Nc1cc(Cl)sc1-c1ccc(-c2ccc(C3(C(=O)O)CC3)cc2)cc1)c1cc(F)ccc1F [I-68, (R)-1-{4′-[5-Chloro-3-({[1-(2,5-difluorophenyl)ethoxy]carbonyl}amino)thiophen-2-yl]-[1,1′-biphenyl]-4-yl}cyclopropanecarboxylic acid]",–,≤ 200 nM,≥ 50%

# Now from value to compound, other results behind:
IC50 [1],IC50 [2],SMILES,responders at 10 mg/kg [3]
≤ 200 nM,≤ 200 nM,"C[C@@H](OC(=O)Nc1cc(F)sc1-c1ccc(-c2ccc(C3(C(=O)O)CC3)cc2)cc1)c1ccc(F)cc1 [I-112, (R)-1-{4′-[5-Fluoro-3-({[1-(4-fluorophenyl)ethoxy]carbonyl}amino)thiophen-2-yl]-[1,1′-biphenyl]-4-yl}cyclopropanecarboxylic acid]",≥ 50%
≤ 200 nM,≤ 200 nM,"C[C@@H](OC(=O)Nc1cc(Cl)sc1-c1ccc(-c2ccc(C3(C(=O)O)CC3)cc2)cc1)c1ccc(F)cc1 [I-42, (R)-1-{4′-[5-Chloro-3-({[1-(4-fluorophenyl)ethoxy]carbonyl}amino)thiophen-2-yl]-[1,1′-biphenyl]-4-yl}cyclopropanecarboxylic acid]",≥ 50%
≤ 200 nM,≤ 200 nM,"C[C@@H](OC(=O)Nc1cc(Cl)sc1-c1ccc(-c2ccc(C3(C(=O)O)CC3)cc2)cc1)c1ccccc1 [I-24, (R)-1-[4′-(5-Chloro-3-{[(1-phenylethoxy)carbonyl]amino}thiophen-2-yl)-[1,1′-biphenyl]-4-yl]cyclopropanecarboxylic acid]",≥ 50%
≤ 200 nM,≤ 200 nM,"C[C@@H](OC(=O)Nc1cc(Cl)sc1-c1ccc(-c2ccc(C3(C(=O)O)CC3)cc2)cc1)c1cccc(F)c1 [I-38, (R)-1-{4′-[5-Chloro-3-({[1-(3-fluorophenyl)ethoxy]carbonyl}amino)thiophen-2-yl]-[1,1′-biphenyl]-4-yl}cyclopropanecarboxylic acid]",≥ 50%
≤ 200 nM,≤ 200 nM,"C[C@@H](OC(=O)Nc1cc(F)sc1-c1ccc(-c2ccc(C3(C(=O)O)CC3)cc2)cc1)c1ccccc1F [I-104, (R)-1-{4′-[5-Fluoro-3-({[1-(2-fluorophenyl)ethoxy]carbonyl}amino)thiophen-2-yl]-[1,1′-biphenyl]-4-yl}cyclopropanecarboxylic acid]",≥ 50%
≤ 200 nM,≤ 200 nM,"C[C@@H](OC(=O)Nc1cc(Cl)sc1-c1ccc(-c2ccc(C3(C(=O)O)CC3)cc2)cc1)c1ccc(F)cc1Cl [I-76, (R)-1-{4′-[5-Chloro-3-({[1-(2-chloro-4-fluorophenyl)ethoxy]carbonyl}amino)thiophen-2-yl]-[1,1′-biphenyl]-4-yl}cyclopropanecarboxylic acid]",–
–,≤ 200 nM,"CC(OC(=O)Nc1cc(F)sc1-c1ccc(-c2ccc(C3(C(=O)O)CC3)cc2)cc1)c1cscc1Cl (racemic) [I-657, (RS)-1-{4′-[3-({[1-(4-Chlorothiophen-3-yl)ethoxy]carbonyl}amino)-5-fluorothiophen-2-yl]-[1,1′-biphenyl]-4-yl}cyclopropanecarboxylic acid]",≥ 50%
